Experimental data published in patent US12115208B2, “Small-molecule adjuvants for antibiotics to address antibiotic resistance” (HIGH POINT UNIVERSITY, priority 2017, dated 2024).

Experiments:
[1] = system: S. aureus 29213 pre-formed biofilm; assay: Biofilm dispersion assay; type: cell-based; settings: Staphylococcus aureus
Protocol: (§1) Overnight cultures of S. aureus or S. epidermidis were subcultured to an OD600 of 0.01 in tryptic soy broth supplemented with 0.5% glucose (TSBG). For USA300Δ/+stk1, TSBG was supplemented with 0.2% xylose to induce transcription of stk1. 100 μl of the culture was distributed into rows 2-11 of a 96-well polyvinylchloride plate. Rows 1 and 12 were filled with 100 μl of sterile water and served as the negative controls. […] After the incubation period, the media was discarded and the plates were washed with water to remove non-adherent cells. Media containing the desired concentrations of compound was prepared and 100 μl was added to the desired rows. Media alone was added as a positive control and sterile water was added as a negative control. The plates were sealed with Glad Press-n-Seal and incubated under stationary conditions for another 24 hours. The media was discarded and plates were washed with water to remove any non-adherent bacteria. 110 μl of an aqueous crystal violet solution (0.1%) was added to each well and allowed to rest at room temperature to stain any biomass. After 30 minutes, the crystal violet solution was discarded and the plates were washed with water. The stained biomass was dissolved in 95% ethanol (200 μl) for 30 minutes and 125 μl was transferred to the corresponding wells of a flat-bottomed polystyrene 96-well plate. The absorbance of each well was measured at 540 nm. The wells that contained only water were used as background and subtracted from wells containing cultures.
(§2) Biofilm dispersion was quantified by calculating the ratio of the absorbance of the treated wells as compared to the untreated wells. These values were plotted and fit to a curve to determine the EC50.
(§3) Loratadine was also tested for the ability to disperse pre-formed biofilms. Biofilm dispersion is reported as an EC50, which is defined as the concentration of compound required to disperse 50% of the preformed biofilm.

[2] = system: S. aureus USA300 pre-formed biofilm; assay: Biofilm dispersion assay; type: cell-based; settings: Staphylococcus aureus, S. aureus USA300 (MRSA)
Protocol: as §1, §2, §3

[3] = system: S. aureus USA100 pre-formed biofilm; assay: Biofilm dispersion assay; type: cell-based; settings: Staphylococcus aureus, S. aureus USA100 (MRSA)
Protocol: as §1, §2, §3

[4] = system: S. aureus 43300 pre-formed biofilm; assay: Biofilm dispersion assay; type: cell-based; settings: Staphylococcus aureus, S. aureus 43300 (MRSA)
Protocol: as §1, §2, §3

S. aureus 43300 (MRSA) = assay: Antibiotic repotentiation (antibiotic MIC with/without compound); type: cell-based, Staphylococcus aureus; settings: +50 μM compound
S. aureus USA300 (MRSA) = assay: as above; type: cell-based, Staphylococcus aureus; settings: +50 μM compound, S. aureus USA300 (MRSA)
S. aureus ATCC 29213 = assay: Minimum inhibitory concentration, broth microdilution; type: cell-based; settings: Staphylococcus aureus, ATCC29213; compound alone; S. aureus ATCC 29213; CAMHB, 18 h; read-out: MIC
Protocol: The compounds were then analyzed for antibiotic repotentiation activity. […] The tested strains included USA300, which is a common and particularly virulent strain of community-acquired MRSA.

S. aureus 29213 biofilm = assay: Biofilm inhibition, crystal violet assay; type: cell-based; settings: Staphylococcus aureus, 30 h
Protocol: (§4) A standard static crystal violet assay was used to quantify biofilm inhibition.^45 Cultures of S. aureus or S. epidermidis were grown overnight in TSBG (tryptic soy broth with 5% glucose) at 37° C. with shaking. These cultures were used to inoculate fresh TSBG to a calculated optical density of 0.01 at 600 nm (OD600). […] Untreated aliquots were used as a positive control and water served as a negative control. 100 μl of these suspensions were added to the wells of a 96-well polyvinylchloride microtiter plate. […] After incubation, media was discarded and the plates were washed with water to remove non-adherent cells. Adherent biofilms were stained with 110 μl of crystal violet (0.1% in water) and incubated at room temperature for thirty minutes. The crystal violet staining solution was discarded and plates were washed with water to remove excess stain. The resulting stained biofilms were solubilized with 200 μL of 95% ethanol for 10 minutes. 125 μl of the ethanol solutions were transferred to a clear polystyrene microtiter plate for evaluation. Absorbance at 540 nm was recorded using a BioTek Synergy H1 microplate reader. The absorbance of the negative control lanes was subtracted from the experimental values to account for background staining. Percent inhibition was calculated by comparison of the absorbance values of control versus treated wells under identical conditions.
(§5) Antibiotic resistance and biofilm formation share similar regulatory mechanisms. […] Biofilm inhibition was first assessed in S. aureus 43300, a methicillin-resistant strain (see Table 18). As described in Materials and Methods, a standard crystal violet assay was used to assess biofilm inhibition by the tested compounds. The IC50 is described as the compound concentration required to inhibit 50% of biofilm formation. The standard deviation is calculated from at least 3 independent experiments.
(§6) The biofilm inhibition activity of loratadine was further explored in other strains of S. aureus. Loratadine was capable of inhibiting biofilm formation in all tested strains of S. aureus, including methicillin-resistant and vancomycin-resistant strains.

S. aureus USA100 biofilm = assay: Biofilm inhibition, crystal violet assay; type: cell-based; settings: Staphylococcus aureus, S. aureus USA100 (MRSA), 30 h
Protocol: as §4, §5, §6

[5] = system: S. aureus NR-50109 biofilm; assay: Biofilm inhibition, crystal violet assay; type: cell-based; settings: Staphylococcus aureus, NR50109BIOFILM, S. aureus NR-50109 (methicillin and vancomycin resistant), 30 h
Protocol: as §4, §5, §6

[6] = system: S. aureus NR-49120 biofilm; assay: Biofilm inhibition, crystal violet assay; type: cell-based; settings: Staphylococcus aureus, NR49120BIOFILM, S. aureus NR-49120 (methicillin and vancomycin resistant), 30 h
Protocol: as §4, §5, §6

[7] = system: S. aureus NR-49120 (VRSA); assay: microbe, parasite or virus in culture; settings: Staphylococcus aureus, 18 h
Protocol: Minimum inhibitory concentrations were determined using a standard serial broth microdilution method. […] Mid-log-phase cultures were diluted to a concentration of approximately 5×10^5 CFU/ml in cation-adjusted Mueller-Hinton broth (CAMHB). Wells 2-11 of a 96-well polyvinylchloride microtiter plate were inoculated with 100 μl of bacterial suspension. 100 μl of uninnoculated CAMHB was added to well 12 to serve as a negative control. The top wells were inoculated with 200 μl of bacterial suspension with either antibiotics or compounds added. Serial dilutions were performed in wells 2-10, leaving well 11 to serve as the positive control. The microtiter plates were covered with Press-n-Seal and incubated at 37° C. for 18 hours without agitation. Plates were scored by visual detection of well turbidity.

MRSA 43300 biofilm = assay: Biofilm inhibition, crystal violet assay; type: cell-based, Staphylococcus aureus; settings: 30 h
Protocol: as §4, §5

[8] = system: various S. aureus strains; assay: microbe, parasite or virus in culture; settings: Staphylococcus aureus, read-out: MICs
S. aureus USA100 (MRSA) = assay: microbe, parasite or virus in culture; type: cell-based, Staphylococcus aureus; settings: Staphylococcus aureus, compound alone, CAMHB, 18 h

CCOC(=O)N1CCC(=C2c3ccc(Cl)cc3CCc3cccnc32)CC1 [Loratadine, ethyl 4-(8-chloro-5,6-dihydrobenzo[1,2]cyclohepta[2,4-b]pyridin-11-ylidene)piperidine-1-carboxylate]
EC50 [1]: > 200 µM
EC50 [2]: > 200 µM
EC50 [3]: 121 µM
EC50 [4]: > 200 µM
Oxacillin MIC (S. aureus 43300 (MRSA); S. aureus ATCC 43300 (MRSA)): 1 µg/mL
Fold Reduction (S. aureus 43300 (MRSA); oxacillin MIC, S. aureus 43300 (MRSA)): 32
Oxacillin MIC (S. aureus USA300 (MRSA)): 0.5 µg/mL
Fold Reduction (S. aureus USA300 (MRSA); oxacillin MIC): 64
MIC (S. aureus ATCC 29213): > 200 µM
IC50 (S. aureus 29213 biofilm): 25.9 ± 2.36 µM
IC50 (S. aureus USA100 biofilm): 22.2 ± 6.51 µM
IC50 [5]: 19.1 ± 2.87 µM
IC50 [6]: 59.9 ± 1.29 µM
MIC [7]: > 200 µM
IC50 (MRSA 43300 biofilm): 11.5 µM
IC50 (MRSA 43300 biofilm; Staphylococcus aureus, MRSA): 11.4 µM
MIC [8]: > 200 µM
MIC (S. aureus USA100 (MRSA)): > 200 µM
